Assay results published in article PMC4760375, “A dual phosphorylation switch controls 14-3-3-dependent cell surface expression of TASK-1” (Journal of Cell Science, 2016).
Non-standard residues stand in square brackets, D forms with d. Residues, ends and D or L forms follow the SMILES beside them. No end group written: not given here. pS = N[C@@H](COP(=O)(O)O)C(=O)O

Legend:
[1] = molecular target: T1, 14-3-3β (Homo sapiens, UniProt P31946); assay: Fluorescence polarization titration with 14-3-3β; assay type: binding; conditions: versus TASK-3 pS373
T1 construct: Open reading frames encoding human 14-3-3 proteins were inserted into the pMAL2Cx vector at EcoRI and HindIII restriction sites; made in house
Procedure: (§1) TASK-1 or TASK-3 C-terminal fluorescent peptides (10 nM), comprising the last 15 amino acids of the respective C-termini, were titrated with concentrations of the 14-3-3 proteins ranging from 1 nM to 120 µM (Fig. 2), and the equilibrium dissociation constants of 14-3-3 proteins were calculated for TASK-1 phosphorylated at S393 (TASK-1 pS393; the conserved serine residue of the mode III 14-3-3-binding motif) and for TASK-3 phosphorylated at S373 (TASK-3 pS373) (Table 1). They ranged from 7.5±0.14 µM (mean±s.e.m.; 14-3-3β) to 49.4±2 µM (14-3-3τ) for TASK-1, whereas dissociation constants for TASK-3 ranged from 110±10 nM (14-3-3η) to 3.6±0.44 µM (14-3-3σ). The latter value matches the result determined previously by [Anders et al. (2013]) for the TASK-3 C-terminal hexapeptide using isothermal titration calorimetry. […]
(§2) Fig. 2. […] Fluorescence polarization titration of fluorescein-labeled TASK-1 pS393 (black), TASK-3 pS373 (red) and TASK-3 pS373 ΔV374 (blue) peptide (10 nM) with increasing concentrations of the indicated 14-3-3 isoform. Fluorescein was excited at 485 nm, and fluorescence polarization was monitored at 535 nm. […]
(§3) Interactions between 14-3-3 proteins and TASK-1 and TASK-3 C-terminal peptides and variants were investigated using a fluorescence polarization assay ([Moll et al., 2006]; [Muda et al., 2014]). […]

[2] = molecular target: T2, 14-3-3ε (Homo sapiens, UniProt P62258); assay: Fluorescence polarization titration with 14-3-3ε; assay type: binding; conditions: versus TASK-3 pS373
T2 construct: Open reading frames encoding human 14-3-3 proteins were inserted into the pMAL2Cx vector at EcoRI and HindIII restriction sites; made in house
Procedure: as §1, §2, §3

[3] = molecular target: T3, 14-3-3σ (Homo sapiens, UniProt P31947); assay: Fluorescence polarization titration with 14-3-3σ; assay type: binding
T3 construct: Open reading frames encoding human 14-3-3 proteins were inserted into the pMAL2Cx vector at EcoRI and HindIII restriction sites; made in house
T3 sequence (P31947 1-248): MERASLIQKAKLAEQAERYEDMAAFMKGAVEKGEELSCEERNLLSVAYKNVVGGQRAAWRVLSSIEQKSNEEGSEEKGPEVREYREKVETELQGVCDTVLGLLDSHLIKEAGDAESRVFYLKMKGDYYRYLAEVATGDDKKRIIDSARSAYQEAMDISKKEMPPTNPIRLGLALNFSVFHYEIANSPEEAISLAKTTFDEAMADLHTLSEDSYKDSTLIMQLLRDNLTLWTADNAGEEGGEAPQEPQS
Procedure: as §1, §2, §3

[4] = system: 14-3-3 proteins (all seven isoforms); assay: Fluorescence polarization titration, statements across the 14-3-3 isoforms; assay type: binding, human; conditions: fluorescence polarization; 14-3-3β, 14-3-3γ, 14-3-3ζ, 14-3-3η and 14-3-3τ
Procedure: TASK-1 or TASK-3 C-terminal fluorescent peptides (10 nM), comprising the last 15 amino acids of the respective C-termini, were titrated with concentrations of the 14-3-3 proteins ranging from 1 nM to 120 µM (Fig. 2), and the equilibrium dissociation constants of 14-3-3 proteins were calculated for TASK-1 phosphorylated at S393 (TASK-1 pS393; the conserved serine residue of the mode III 14-3-3-binding motif) and for TASK-3 phosphorylated at S373 (TASK-3 pS373) (Table 1). They ranged from 7.5±0.14 µM (mean±s.e.m.; 14-3-3β) to 49.4±2 µM (14-3-3τ) for TASK-1, whereas dissociation constants for TASK-3 ranged from 110±10 nM (14-3-3η) to 3.6±0.44 µM (14-3-3σ). The latter value matches the result determined previously by [Anders et al. (2013]) for the TASK-3 C-terminal hexapeptide using isothermal titration calorimetry. The dissociation constants of the seven mammalian 14-3-3 isoforms for the same TASK C-terminal peptide differed up to sevenfold for TASK-1-derived peptides and up to 30-fold for TASK-3-derived peptides. […] No binding of any 14-3-3 isoform to any TASK C-terminal peptide was observed when the peptides were not phosphorylated.
Fig. 2. […] Fluorescence polarization titration of fluorescein-labeled TASK-1 pS393 (black), TASK-3 pS373 (red) and TASK-3 pS373 ΔV374 (blue) peptide (10 nM) with increasing concentrations of the indicated 14-3-3 isoform. Fluorescein was excited at 485 nm, and fluorescence polarization was monitored at 535 nm. A monophasic fit was used to fit the data (Goodness-of-fit: R^2 from 0.76 to 0.98). No binding was detectable for the unphosphorylated TASK C-terminal peptides. The assay was repeated at least six times for each data point with two batches of independently purified 14-3-3 proteins. Error bars depict s.e.m. (A) 14-3-3β, (B) 14-3-3γ, (C) 14-3-3ε, (D) 14-3-3ζ, (E) 14-3-3η and (F) 14-3-3τ.
[Mant et al. (2011)] report that both serine residues present in the TASK-1 C-terminus can be phosphorylated in vitro by the recombinant catalytic subunit of PKA. […] Next, using fluorescence polarization titration, we determined how phosphorylation of S392 affects the affinity of all seven mammalian 14-3-3 proteins for the TASK-1 C-terminus – either when phosphorylated alone or in combination with phosphorylation of S393 (Table S1). […] Because all Kd values determined for TASK-1 pS392 and the doubly phosphorylated protein (at S392 and S393) were substantially higher than those measured for TASK-1 pS393 (Table S1), we conclude that phosphorylation of S392 cannot substitute for phosphorylated S393 in creating a high-affinity 14-3-3 binding site. On the contrary, our results are consistent with an inhibitory role for phosphorylation of S392 with respect to 14-3-3-mediated binding.
Interactions between 14-3-3 proteins and TASK-1 and TASK-3 C-terminal peptides and variants were investigated using a fluorescence polarization assay ([Moll et al., 2006]; [Muda et al., 2014]). Fluorescein-labeled peptides were purchased from Peps4Life Sciences (Heidelberg, Germany). All measurements were performed in buffer containing 20 mM MOPS, 150 mM NaCl, 0.005% (v/v) CHAPS pH 7.0, using a Fusion™ α-FP microtiter plate reader at room temperature in a 384-well microtiter plater (Optiplate 384, black; Packard, Meriden, CT). 14-3-3 proteins were serially diluted from 100 µM to 1 nM and incubated with 10 nM of fluorescently labeled peptide. The fluorescence polarization signal was detected for 2 s at an excitation wavelength of 485 nm with an emission fluorescence polarization filter wavelength of 535 nm and a photomultiplier voltage of 1100. Data were analyzed with GraphPad Prism 6.0 (GraphPad Software, San Diego, CA) by plotting the obtained fluorescence polarization signal in millipolarization units (mPol) against the logarithm of the 14-3-3 protein concentration. The data were then fitted using a monophasic fit.

[5] = molecular target: T4, 14-3-3γ (Homo sapiens, UniProt P61981); assay: Surface plasmon resonance, 14-3-3γ; assay type: binding; conditions: GST fusion captured by anti-GST antibody on chip, phosphorylated on-chip with PKA catalytic subunit; 150 mM NaCl, 20 mM HEPES, 0.005% Tween 20 pH 7.5, 20°C; equilibrium, sigmoidal dose-response fit; ±s.e.m., at least six repeats; read-out: Kd, SPR, 14-3-3γ
T4 construct: Open reading frames encoding human 14-3-3 proteins were inserted into the pMAL2Cx vector at EcoRI and HindIII restriction sites; made in house
T4 sequence (P61981 1-247): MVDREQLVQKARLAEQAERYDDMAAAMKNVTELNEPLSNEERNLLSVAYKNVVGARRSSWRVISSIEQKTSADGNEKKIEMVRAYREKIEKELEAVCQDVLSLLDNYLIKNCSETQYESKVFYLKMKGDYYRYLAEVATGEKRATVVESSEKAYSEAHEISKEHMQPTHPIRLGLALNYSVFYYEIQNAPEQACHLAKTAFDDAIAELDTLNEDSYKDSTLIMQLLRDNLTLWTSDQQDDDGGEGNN
From the text: (§4) In addition to fluorescence polarization, we used surface plasmon resonance (SPR) as a second, complementary approach to quantify the binding parameters for the TASK-3 C-terminus (Fig. 3, Table 1). […] We developed an on-chip phosphorylation protocol (Fig. 3A) where we first captured the GST fusion proteins on the chip surface with an antibody against GST (which was crosslinked at a high density to the metal surface) and then phosphorylated GST–TASK-3 with recombinantly expressed PKA catalytic subunit (also known as PRKACA; [Knape et al., 2015]). […] Consistent with the results of fluorescence polarization titration, no binding of 14-3-3 proteins was observed prior to on-chip phosphorylation, whereas all 14-3-3 isoforms did bind upon phosphorylation of the TASK-3 C-terminus (Fig. 3C) with equilibrium dissociation constants (Fig. 3D, Table 1) between 45±9 nM (14-3-3γ) to 742±29 nM (14-3-3σ). Depending on the 14-3-3 isoform, these values were very similar (14-3-3η and 14-3-3τ) or differed two- (14-3-3β) to fivefold (14-3-3ε, 14-3-3ζ and 14-3-3σ) from the values determined by fluorescence polarization (Fig. 2, Table 1). […]
(§5) Fig. 3. Affinities of the seven mammalian 14-3-3 isoforms for the phosphorylated TASK-3 C-terminus obtained by surface plasmon resonance are consistent with values obtained using fluorescence polarization. […]

[6] = molecular target: T3, 14-3-3σ; assay: Surface plasmon resonance, 14-3-3σ; assay type: binding; conditions: GST fusion captured by anti-GST antibody on chip, phosphorylated on-chip with PKA catalytic subunit; 150 mM NaCl, 20 mM HEPES, 0.005% Tween 20 pH 7.5, 20°C; equilibrium, sigmoidal dose-response fit; ±s.e.m., at least six repeats; read-out: Kd, SPR, 14-3-3σ
From the text: as §4, §5

[7] = system: 14-3-3 proteins; assay: Surface plasmon resonance, statements across the 14-3-3 isoforms; assay type: binding, human; conditions: SPR, prior to on-chip phosphorylation
From the text: as §4, §5

T2 sequence (P62258 whole entry): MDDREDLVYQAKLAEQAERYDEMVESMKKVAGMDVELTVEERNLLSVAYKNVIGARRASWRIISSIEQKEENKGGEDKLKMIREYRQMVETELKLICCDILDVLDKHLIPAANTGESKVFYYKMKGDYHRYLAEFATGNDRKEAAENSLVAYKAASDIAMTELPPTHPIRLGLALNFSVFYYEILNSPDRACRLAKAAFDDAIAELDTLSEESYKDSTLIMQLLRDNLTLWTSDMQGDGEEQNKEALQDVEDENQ
T1 sequence (P31946 whole entry): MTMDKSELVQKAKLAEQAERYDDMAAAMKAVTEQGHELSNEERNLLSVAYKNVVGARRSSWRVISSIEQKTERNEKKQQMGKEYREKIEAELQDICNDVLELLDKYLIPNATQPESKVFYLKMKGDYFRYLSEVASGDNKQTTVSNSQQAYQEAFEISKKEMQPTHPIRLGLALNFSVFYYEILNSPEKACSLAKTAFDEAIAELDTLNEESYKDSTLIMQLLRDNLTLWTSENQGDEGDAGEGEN

Molecule | fold reduction of affinity by the C-terminal deletion, 14-3-3β [1] | fold reduction of affinity by the C-terminal deletion, 14-3-3 epsilon [2] | Kd, fluorescence polarization, 14-3-3σ ([3]; 10 nM fluorescein-labeled peptide titrated with 14-3-3 (1 nM to 120 µM), 20 mM MOPS, 150 mM NaCl, 0.005% CHAPS pH 7.0, room temperature, monophasic fit, ±s.e.m., n.b. = no binding detectable) | interaction with 14-3-3σ (in words) ([3]; fluorescence polarization titration) | affinity range (in words) [4] | Kd [5] | Kd [6] | binding of 14-3-3 proteins (in words) [7]
CSCC[C@H](NC(=O)[C@H](CC(C)C)NC(=O)[C@H](CCCNC(=N)N)NC(=O)[C@H](CCC(N)=O)NC(=O)[C@H](Cc1c[nH]cn1)NC(=O)[C@H](CC(=O)O)NC(=O)[C@@H](NC(=O)[C@H](Cc1ccccc1)NC(=O)[C@H](CO)NC(=O)[C@@H](N)CS)[C@@H](C)O)C(=O)N[C@@H](CCCCN)C(=O)N[C@@H](CCCNC(=N)N)C(=O)N[C@@H](CCCNC(=N)N)C(=O)N[C@@H](CCCCN)C(=O)N[C@@H](COP(=O)(O)O)C(=O)O [TASK-3 pS373 ΔV374] (H-CSFTDHQRLMKRRK[pS]-OH; N-terminus assumed) | three | 23 fold | n.b.±n.b. | could no longer be measured | low micromolar range | – | – | –
GST–TASK-3-CT15: Glutathione S-transferase fused to the TASK-3 C-terminal 15 residues, from E. coli, phosphorylated on-chip with PKA (SFTDHQRLMKRRKSV; also: GST fusion, end not given here, phosphorylated with PKA, site not given here) | – | – | – | – | – | 45 ± 9 nM | 742 ± 29 nM | no binding
